Assay results from patent publication US8192962B2, “Processes for detecting toxic substances” (Daikin Industries, Ltd., priority 2001, dated 2012).

Tested on: Stress protein genes
Test: DNA chip mRNA expression in yeast, stress protein genes (Table 6)
Assay type: cell-based, Saccharomyces cerevisiae S288C
Method in brief: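 Measured as treated-to-untreated fluorescence ratio on a full-genome yeast DNA chip. Cells (S288C, YPD, 25° C.) were exposed in log phase for two hours to one chemical, dosed to curb growth without killing.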

SMILES: O=[N+]([O-])c1cc[n+]([O-])c2ccccc12 [(5), 4-nitroquinolin-N-oxide]
- The level of expressed mRNA in the presence of chemical substance/The level of expressed mRNA in the absence of chemical substance (yeast gene YAL005C): 1.2
- The level of expressed mRNA in the presence of chemical substance/The level of expressed mRNA in the absence of chemical substance (yeast gene YAL015C): 1.1
- The level of expressed mRNA in the presence of chemical substance/The level of expressed mRNA in the absence of chemical substance (yeast gene YBL075C): 1.1
- The level of expressed mRNA in the presence of chemical substance/The level of expressed mRNA in the absence of chemical substance (yeast gene YBL093C): 1.0
- The level of expressed mRNA in the presence of chemical substance/The level of expressed mRNA in the absence of chemical substance (yeast gene YBR044C): 1.4
- The level of expressed mRNA in the presence of chemical substance/The level of expressed mRNA in the absence of chemical substance (yeast gene YBR054W): 0.8
- The level of expressed mRNA in the presence of chemical substance/The level of expressed mRNA in the absence of chemical substance (yeast gene YBR067C): 1.1
- The level of expressed mRNA in the presence of chemical substance/The level of expressed mRNA in the absence of chemical substance (yeast gene YBR072W): 1.2
- The level of expressed mRNA in the presence of chemical substance/The level of expressed mRNA in the absence of chemical substance (yeast gene YBR126C): 0.7
- The level of expressed mRNA in the presence of chemical substance/The level of expressed mRNA in the absence of chemical substance (yeast gene YBR169C): 0.8
- The level of expressed mRNA in the presence of chemical substance/The level of expressed mRNA in the absence of chemical substance (yeast gene YCL035C): 1.5
- The level of expressed mRNA in the presence of chemical substance/The level of expressed mRNA in the absence of chemical substance (yeast gene YCR021C): 0.9
- The level of expressed mRNA in the presence of chemical substance/The level of expressed mRNA in the absence of chemical substance (yeast gene YCR060W): 0.8
- The level of expressed mRNA in the presence of chemical substance/The level of expressed mRNA in the absence of chemical substance (yeast gene YCR083W): 1.6
- The level of expressed mRNA in the presence of chemical substance/The level of expressed mRNA in the absence of chemical substance (yeast gene YDL022W): 0.7
- The level of expressed mRNA in the presence of chemical substance/The level of expressed mRNA in the absence of chemical substance (yeast gene YDL025C): 0.6
- The level of expressed mRNA in the presence of chemical substance/The level of expressed mRNA in the absence of chemical substance (yeast gene YDR033W): 1.1
- The level of expressed mRNA in the presence of chemical substance/The level of expressed mRNA in the absence of chemical substance (yeast gene YDR077W): 0.8
- The level of expressed mRNA in the presence of chemical substance/The level of expressed mRNA in the absence of chemical substance (yeast gene YDR098C): 1.5
- The level of expressed mRNA in the presence of chemical substance/The level of expressed mRNA in the absence of chemical substance (yeast gene YDR155C): 0.8
- The level of expressed mRNA in the presence of chemical substance/The level of expressed mRNA in the absence of chemical substance (yeast gene YDR258C): 1.3
- The level of expressed mRNA in the presence of chemical substance/The level of expressed mRNA in the absence of chemical substance (yeast gene YDR293C): 0.6
- The level of expressed mRNA in the presence of chemical substance/The level of expressed mRNA in the absence of chemical substance (yeast gene YDR436W): 0.7
- The level of expressed mRNA in the presence of chemical substance/The level of expressed mRNA in the absence of chemical substance (yeast gene YDR513W): 0.9
- The level of expressed mRNA in the presence of chemical substance/The level of expressed mRNA in the absence of chemical substance (yeast gene YDR519W): 0.7
- The level of expressed mRNA in the presence of chemical substance/The level of expressed mRNA in the absence of chemical substance (yeast gene YEL030W): 0.4
- The level of expressed mRNA in the presence of chemical substance/The level of expressed mRNA in the absence of chemical substance (yeast gene YEL039C): 0.9
- The level of expressed mRNA in the presence of chemical substance/The level of expressed mRNA in the absence of chemical substance (yeast gene YER042W): 1.1
- The level of expressed mRNA in the presence of chemical substance/The level of expressed mRNA in the absence of chemical substance (yeast gene YER057C): 0.8
- The level of expressed mRNA in the presence of chemical substance/The level of expressed mRNA in the absence of chemical substance (yeast gene YER103W): 1.1
- The level of expressed mRNA in the presence of chemical substance/The level of expressed mRNA in the absence of chemical substance (yeast gene YER125W): 1.4
- The level of expressed mRNA in the presence of chemical substance/The level of expressed mRNA in the absence of chemical substance (yeast gene YFL014W): 1.0
- The level of expressed mRNA in the presence of chemical substance/The level of expressed mRNA in the absence of chemical substance (yeast gene YFL016C): 1.3
- The level of expressed mRNA in the presence of chemical substance/The level of expressed mRNA in the absence of chemical substance (yeast gene YFL020C): 1.1
- The level of expressed mRNA in the presence of chemical substance/The level of expressed mRNA in the absence of chemical substance (yeast gene YFR052W): 1.4
- The level of expressed mRNA in the presence of chemical substance/The level of expressed mRNA in the absence of chemical substance (yeast gene YGL073W): 1.7
- The level of expressed mRNA in the presence of chemical substance/The level of expressed mRNA in the absence of chemical substance (yeast gene YGL115W): 1.2
- The level of expressed mRNA in the presence of chemical substance/The level of expressed mRNA in the absence of chemical substance (yeast gene YGL181W): 1.1
- The level of expressed mRNA in the presence of chemical substance/The level of expressed mRNA in the absence of chemical substance (yeast gene YGR088W): 1.0
- The level of expressed mRNA in the presence of chemical substance/The level of expressed mRNA in the absence of chemical substance (yeast gene YHL028W): 1.1
- The level of expressed mRNA in the presence of chemical substance/The level of expressed mRNA in the absence of chemical substance (yeast gene YHL046C): 0.9
- The level of expressed mRNA in the presence of chemical substance/The level of expressed mRNA in the absence of chemical substance (yeast gene YHR030C): 1.8
- The level of expressed mRNA in the presence of chemical substance/The level of expressed mRNA in the absence of chemical substance (yeast gene YHR057C): 1.3
- The level of expressed mRNA in the presence of chemical substance/The level of expressed mRNA in the absence of chemical substance (yeast gene YHR104W): 1.1
- The level of expressed mRNA in the presence of chemical substance/The level of expressed mRNA in the absence of chemical substance (yeast gene YIL011W): 1.1
- The level of expressed mRNA in the presence of chemical substance/The level of expressed mRNA in the absence of chemical substance (yeast gene YIL033C): 0.7
- The level of expressed mRNA in the presence of chemical substance/The level of expressed mRNA in the absence of chemical substance (yeast gene YIR037W): 0.6
- The level of expressed mRNA in the presence of chemical substance/The level of expressed mRNA in the absence of chemical substance (yeast gene YIR038C): 0.7
- The level of expressed mRNA in the presence of chemical substance/The level of expressed mRNA in the absence of chemical substance (yeast gene YJL128C): 1.2
- The level of expressed mRNA in the presence of chemical substance/The level of expressed mRNA in the absence of chemical substance (yeast gene YJL158C): 1.4
- The level of expressed mRNA in the presence of chemical substance/The level of expressed mRNA in the absence of chemical substance (yeast gene YJL159W): 1.0
- The level of expressed mRNA in the presence of chemical substance/The level of expressed mRNA in the absence of chemical substance (yeast gene YJL165C): 1.1
- The level of expressed mRNA in the presence of chemical substance/The level of expressed mRNA in the absence of chemical substance (yeast gene YJR045C): 0.5
- The level of expressed mRNA in the presence of chemical substance/The level of expressed mRNA in the absence of chemical substance (yeast gene YJR090C): 1.2
- The level of expressed mRNA in the presence of chemical substance/The level of expressed mRNA in the absence of chemical substance (yeast gene YKL161C): 1.4
- The level of expressed mRNA in the presence of chemical substance/The level of expressed mRNA in the absence of chemical substance (yeast gene YKL163W): 0.6
- The level of expressed mRNA in the presence of chemical substance/The level of expressed mRNA in the absence of chemical substance (yeast gene YKL164C): 1.1
- The level of expressed mRNA in the presence of chemical substance/The level of expressed mRNA in the absence of chemical substance (yeast gene YKL210W): 0.8
- The level of expressed mRNA in the presence of chemical substance/The level of expressed mRNA in the absence of chemical substance (yeast gene YKR053C): 1.0
- The level of expressed mRNA in the presence of chemical substance/The level of expressed mRNA in the absence of chemical substance (yeast gene YLL024C): 0.7
- The level of expressed mRNA in the presence of chemical substance/The level of expressed mRNA in the absence of chemical substance (yeast gene YLL026W): 0.9
- The level of expressed mRNA in the presence of chemical substance/The level of expressed mRNA in the absence of chemical substance (yeast gene YLL039C): 0.9
- The level of expressed mRNA in the presence of chemical substance/The level of expressed mRNA in the absence of chemical substance (yeast gene YLL060C): 0.9
- The level of expressed mRNA in the presence of chemical substance/The level of expressed mRNA in the absence of chemical substance (yeast gene YLR006C): 1.6
- The level of expressed mRNA in the presence of chemical substance/The level of expressed mRNA in the absence of chemical substance (yeast gene YLR109W): 1.3
- The level of expressed mRNA in the presence of chemical substance/The level of expressed mRNA in the absence of chemical substance (yeast gene YLR259C): 1.1
- The level of expressed mRNA in the presence of chemical substance/The level of expressed mRNA in the absence of chemical substance (yeast gene YML007W): 1.0
- The level of expressed mRNA in the presence of chemical substance/The level of expressed mRNA in the absence of chemical substance (yeast gene YML070W): 1.4
- The level of expressed mRNA in the presence of chemical substance/The level of expressed mRNA in the absence of chemical substance (yeast gene YMR021C): 1.6
- The level of expressed mRNA in the presence of chemical substance/The level of expressed mRNA in the absence of chemical substance (yeast gene YMR173W): 1.1
- The level of expressed mRNA in the presence of chemical substance/The level of expressed mRNA in the absence of chemical substance (yeast gene YMR186W): 1.3
- The level of expressed mRNA in the presence of chemical substance/The level of expressed mRNA in the absence of chemical substance (yeast gene YNL064C): 0.9
- The level of expressed mRNA in the presence of chemical substance/The level of expressed mRNA in the absence of chemical substance (yeast gene YNL160W): 1.3
- The level of expressed mRNA in the presence of chemical substance/The level of expressed mRNA in the absence of chemical substance (yeast gene YNL241C): 0.8
- The level of expressed mRNA in the presence of chemical substance/The level of expressed mRNA in the absence of chemical substance (yeast gene YNR076W): 1.2
- The level of expressed mRNA in the presence of chemical substance/The level of expressed mRNA in the absence of chemical substance (yeast gene YOL064C): 0.9
- The level of expressed mRNA in the presence of chemical substance/The level of expressed mRNA in the absence of chemical substance (yeast gene YOL161C): 0.9
- The level of expressed mRNA in the presence of chemical substance/The level of expressed mRNA in the absence of chemical substance (yeast gene YOR008C): 1.4
- The level of expressed mRNA in the presence of chemical substance/The level of expressed mRNA in the absence of chemical substance (yeast gene YOR009W): 0.8
- The level of expressed mRNA in the presence of chemical substance/The level of expressed mRNA in the absence of chemical substance (yeast gene YOR010C): 1.2
- The level of expressed mRNA in the presence of chemical substance/The level of expressed mRNA in the absence of chemical substance (yeast gene YOR027W): 1.0
- The level of expressed mRNA in the presence of chemical substance/The level of expressed mRNA in the absence of chemical substance (yeast gene YOR208W): 1.4
- The level of expressed mRNA in the presence of chemical substance/The level of expressed mRNA in the absence of chemical substance (yeast gene YPL059W): 1.2
- The level of expressed mRNA in the presence of chemical substance/The level of expressed mRNA in the absence of chemical substance (yeast gene YPL106C): 1.2
- The level of expressed mRNA in the presence of chemical substance/The level of expressed mRNA in the absence of chemical substance (yeast gene YPL140C): 0.8
- The level of expressed mRNA in the presence of chemical substance/The level of expressed mRNA in the absence of chemical substance (yeast gene YPL194W): 1.3
- The level of expressed mRNA in the presence of chemical substance/The level of expressed mRNA in the absence of chemical substance (yeast gene YPL223C): 0.9
- The level of expressed mRNA in the presence of chemical substance/The level of expressed mRNA in the absence of chemical substance (yeast gene YPL240C): 1.3
- The level of expressed mRNA in the presence of chemical substance/The level of expressed mRNA in the absence of chemical substance (yeast gene YPR005C): 1.0
- The level of expressed mRNA in the presence of chemical substance/The level of expressed mRNA in the absence of chemical substance (yeast gene YPR026W): 0.8
